Data published in patent EP4741391A1, “NMT INHIBITOR, AND PREPARATION METHOD THEREFOR AND USE THEREOF” (Nanjing Synnocare Pharmaceutical Technology Co., Ltd., priority 2023, dated 2025).

Legend:
NMT1 enzyme = target: T1, NMT1 enzyme (Homo sapiens, UniProt P30419); experiment: Inhibitory activity on NMT1 enzyme catalysis (fluorescence intensity, CPM probe); format: biochemical; conditions: 6 nM NMT1 enzyme, 1.25 µM myristoyl-CoA, 20 µM HSPP60 SRC peptide, 45 minutes at 25 °C
T1 sequence (P30419 1-496): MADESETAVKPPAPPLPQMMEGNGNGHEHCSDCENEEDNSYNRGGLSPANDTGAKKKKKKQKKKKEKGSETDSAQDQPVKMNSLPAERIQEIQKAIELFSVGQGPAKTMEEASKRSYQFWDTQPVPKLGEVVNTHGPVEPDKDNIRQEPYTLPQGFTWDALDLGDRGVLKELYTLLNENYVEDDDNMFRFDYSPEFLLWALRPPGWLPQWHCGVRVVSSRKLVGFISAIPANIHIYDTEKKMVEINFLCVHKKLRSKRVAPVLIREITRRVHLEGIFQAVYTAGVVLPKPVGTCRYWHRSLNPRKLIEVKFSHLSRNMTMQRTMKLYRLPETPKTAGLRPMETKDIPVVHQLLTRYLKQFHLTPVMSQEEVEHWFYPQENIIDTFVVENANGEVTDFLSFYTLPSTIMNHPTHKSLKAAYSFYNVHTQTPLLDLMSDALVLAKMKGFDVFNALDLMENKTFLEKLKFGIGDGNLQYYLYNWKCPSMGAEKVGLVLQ
Description: This study evaluated the ability of the compounds of the invention to inhibit NMT1 catalytic activity in vitro. The experiment used a FI (Fluorescence Intensity) analysis method, characterizing NMT1 inhibitors under conditions of 1.25 µM myristoyl-CoA (Lithium salt, Sigma, M4414). In this experiment, a synthesized peptide with the sequence H-Gly-Ser-Asn-Lys-Ser-Lys-Pro-Lys-NH2, HSPP60SRC (Nanjing Peptide Industry, NJP23953), was used as the reaction substrate. The final concentration of the NMT1 enzyme was 6 nM, the final concentration of CPM (Reactive thiol fluorescence probe, Invitrogen, D346) was 1 µM, the final concentration of HSPP60 SRC was 20 µM, and the final concentration of DMSO was 0.5%.
Compounds were dissolved in DMSO to obtain 10 mM stock solutions. Dose-response solutions were prepared with a top endpoint compound concentration of 3 mM, followed by three-fold serial dilutions in DMSO, totaling ten data points. Using an ECHO acoustic liquid handler (BECKMAN, ECHO 655 system), 0.05 µL of the diluted compound solutions was transferred to a 384-well assay plate (Corning, CLS4514). Then, 2.5 µL of the NMT1 enzyme working solution was added to the 384-well assay plate, followed by incubation at 25 °C for 10 minutes. Subsequently, 5 µL of the CPM and myristoyl-CoA working solution was added, the plate was centrifuged at 1000 rpm for 1 minute, and then 2.5 µL of the HSPP60 SRC working solution was added to initiate the reaction. The reaction was incubated at 25 °C for 45 minutes. The FI signal ([…]; ex: 405 nm) was detected using an HTS high-throughput screening multifunctional microplate reader (BMG, PHERA star FSX).
The inhibition rate of the compounds on NMT1 enzyme catalytic activity was calculated using the following formula: Inhibition Percentage (%) = 100 * (Mean of DMSO group - Mean of Compound group) / (Mean of DMSO group - Mean of Blank control group). The IC50 curve of the compounds was fitted using the software XLfit 5.5.0 according to the nonlinear regression equation. Table 1 provides the inhibitory activity of the compounds of the invention on NMT1 enzyme catalysis.

MV-4-11 cells = experiment: Anti-proliferative activity against MV-4-11 cells (three-day cell viability chemiluminescence); format: cell-based; conditions: Homo sapiens, MV4-11, 72 h, MV-4-11 human monocytic leukemia cells, three days of exposure
Description: This study utilized a cell proliferation assay to analyze the cytotoxicity of MV-4-11 human monocytic leukemia cells after three days of exposure to NMT1 inhibitors. The MV-4-11 cell line was purchased from Nanjing Cobuilder Biotechnology Co., Ltd., and cultured in IMDM medium (Viva cell) in an incubator (Thermo) at 37 °C with 5% CO2. In this experiment, NMT1 inhibitors were dissolved in DMSO to obtain 600 µM stock solutions. Dose-response solutions were prepared with a top endpoint compound concentration of 3 µM, followed by three-fold serial dilutions in DMSO, totaling eight data points. The final concentration of DMSO was 0.5%.
MV-4-11 cells were seeded into a white 96-well plate, 80 µL of cell suspension per well, containing 6000 MV-4-11 cells. The cell plate was placed in the CO2 incubator for overnight culture. Then, 20 µL of NMT1 inhibitor solutions at different concentrations were added to the wells. The 96-well plate was placed back into the incubator for three days. Another cell plate was prepared, and the signal was read on the day of drug addition to serve as the maximum value (Max value in the equation below) for data analysis. To this cell plate, 25 µL of cell viability chemiluminescence detection reagent was added per well, followed by incubation at room temperature for 10 minutes to stabilize the luminescence signal. A multi-label analyzer was used for reading.
The raw data were converted into inhibition rates using the equation (Sample - Min) / (Max - Min) * 100%. The IC50 values were then determined by fitting a four-parameter curve (using the "log(inhibitor) vs. response - Variable slope" model in GraphPad Prism). Min: wells treated with 0.5% DMSO; Max: Day 0 wells. Table 1 provides the inhibitory activity of the compounds of the invention on MV-4-11 cell proliferation. Table 1: Compound Inhibitory Activity against NMT1 Enzyme (IC50) and Anti-proliferative Activity against MV-4-11 Cells (IC50)

SMILES	IC50 (NMT1 enzyme) [nM]	IC50 (MV-4-11 cells) [nM]
Cc1c(CCOc2cc(Cl)ccc2-c2ccn3ncc(CN(C)C)c3c2)c(C(=O)N(C)C)nn1C [Compound 1, 4-{2-[(5-chloro-2-{3-[(dimethylamino)methyl]-pyrazolo [1,5-a]pyridin-5-yl}phenyl)oxy]ethyl}-1,5,N,N-tetramethylpyrazole-3-carboxamide]	1.77	17.1
CNCc1cnn2ccc(-c3ccc(Cl)cc3OCCc3c(C(=O)N(C)C)nn(C)c3C)cc12 [Compound 2, 4-{2-[(5-chloro-2-{3-[(methylamino)methyl]pyrazolo[1,5-a]pyridin-5-yl}phenyl)oxy]ethyl}-1,5,N,N-tetramethyl pyrazole-3-carboxamide]	2.13	23.4
Cc1c(CCOc2cc(Cl)ccc2-c2ccn3ncc(CN)c3c2)c(C(=O)N(C)C)nn1C [Compound 3, 4-[2-({2-[3-(aminomethyl)pyrazolo[1,5-a]pyridin-5-yl]-5-chlorophenyl}oxy)ethyl]-1,5,N,N-tetramethylpyrazole-3-carboxamide]	3.45	41.2
Cc1c(CCOc2cc(F)ccc2-c2ccn3ncc(CN(C)C)c3c2)c(C(=O)N(C)C)nn1C [Compound 4, 4-{2-[(2-{3-[(dimethylamino)methyl]pyrazolo[1,5-a]pyridin-5-yl}-5-fluorophenyl)oxy]ethyl} -1 ,5,N,N-tetrameth ylpyrazole-3-carboxamide]	1.65	11.4
Cc1c(CCOc2c(F)cccc2-c2ccn3ncc(CN(C)C)c3c2)c(C(=O)N(C)C)nn1C [Compound 5, 4-{2-[(6-{3-[(dimethylamino)methyl]pyrazolo[1,5-a]pyridin-5-yl}-2-fluorophenyl)oxy]ethyl} -1 ,5,N,N-tetrameth ylpyrazole-3-carboxamide]	1.74	11.8
Cc1c(CCOc2ccc(F)cc2-c2ccn3ncc(CN(C)C)c3c2)c(C(=O)N(C)C)nn1C [Compound 6, 4-{2-[(2-{3-[(dimethylamino)methyl]pyrazolo[1,5-a]pyridin-5-yl}-4-fluorophenyl)oxy]ethyl}-1,5,N,N-tetrameth ylpyrazole-3-carboxamide]	2.89	30.2
Cc1c(CCOc2c(-c3ccn4ncc(CN(C)C)c4c3)ccc(F)c2F)c(C(=O)N(C)C)nn1C [Compound 7, 4-{2-[(6-{3-[(dimethylamino)methyl]pyrazolo[1,5-a]pyridin-5-yl}-2,3-difluorophenyl)oxy]ethyl}-1,5,N,N-tetram ethylpyrazole-3-carboxamide]	2.1	19.4
Cc1c(CCOc2c(-c3ccn4ncc(CN(C)C)c4c3)ccc(Cl)c2F)c(C(=O)N(C)C)nn1C [Compound 8, 4-{2-[(3-chloro-6-{3-[(dimethylamino)methyl]pyrazolo[1,5-a]pyridin-5-yl}-2-fluorophenyl)oxy]ethyl}-1,5,N,N-tetramethylpyrazole-3-carboxamide]	2.89	28.4
Cc1c(CCOc2c(-c3ccn4ncc(CN(C)C)c4c3)ccc(Cl)c2Cl)c(C(=O)N(C)C)nn1C [Compound 9, 4-{2-[(2,3-dichloro-6-{3-[(dimethylamino)methyl]pyrazolo[1,5-a]pyridin-5-yl}phenyl)oxy]ethyl}-1,5,N,N-tetra methylpyrazole-3-carboxamide]	3.68	32.5
Cc1c(CCOc2c(F)cc(F)cc2-c2ccn3ncc(CN(C)C)c3c2)c(C(=O)N(C)C)nn1C [Compound 10, 4-{2-[(6-{3-[(dimethylamino)methyl]pyrazolo[1,5-a]pyridin-5-yl}-2,4-difluorophenyl)oxy]ethyl}-1,5,N,N-tetram ethylpyrazole-3-carboxamide]	2.59	26.4
Cc1c(COc2cc(Cl)ccc2-c2ccn3ncc(CN(C)C)c3c2)c(C(=O)N(C)C)nn1C [Compound 11, 4-{[(5-chloro-2-{3-[(dimethylamino)methyl]pyrazolo[1,5-a]pyridin-5-yl}phenyl)oxy]methyl}-1,5,N,N-tetrameth ylpyrazole-3-carboxamide]	6.31	58.7
Cc1c(CCOc2cc(Cl)ccc2-c2ccn3ncc(CN(C)C)c3c2)c(CO)nn1C [Compound 12, (4-{2-[(5-chloro-2-{3-[(dimethylamino)methyl]-pyrazolo [1,5-a]pyridin-5-yl}phenyl)oxy]ethyl}-1,5-dimethylpyrazol-3-yl)methanol]	3.67	31.7
CNCc1cnn2ccc(-c3ccc(F)c(F)c3OCCc3c(C(C)(C)O)nn(C)c3C)cc12 [Compound 29, 2-(4-{2-[(2,3-difluoro-6-{3-[(methylamino)methyl]-pyrazolo[1,5-a]pyridin-5-yl}phenyl)oxy]ethyl}-1,5-dimethylpyrazol-3-yl)propan-2-ol]	1.7	–
CNCc1cnn2ccc(-c3ccc(F)c(F)c3OCCc3c(C(O)C(C)(C)C)nn(C)c3C)cc12 (stereo not drawn) [Compound 30, 1-(4-{2-[(2,3-difluoro-6-{3-[(methylamino)methyl]-pyrazolo[1,5-a]pyridin-5-yl}phenyl)oxy]ethyl}-1,5-dimethylpyrazol-3-yl)-2,2-dimethylpr opan-1-ol]	1.62	–
CNCc1cnn2ccc(-c3ccc(F)c(F)c3OCCc3c(C(C)O)nn(C)c3C)cc12 (stereo not drawn) [Compound 31, 1-(4-{2-[(2,3-difluoro-6-{3-[(methylamino)methyl]-pyrazolo[1,5-a]pyridin-5-yl}phenyl)oxy]ethyl}-1,5-dimethylpyrazol-3-yl)ethan-1-ol]	1.82	–
CNCc1cnn2ccc(-c3ccc(F)c(F)c3OCCc3c(C(O)C(C)C)nn(C)c3C)cc12 (stereo not drawn) [Compound 32, 1-(4-{2-[(2,3-difluoro-6-{3-[(methylamino)methyl]pyrazolo[1,5-a]pyridin-5-yl}phenyl)oxy]ethyl}-1,5-dimethylpyrazol-3-yl)-2-methylpropan-1-ol]	1.71	–
CNCc1cnn2ccc(-c3ccc(F)cc3OCCc3c(C(O)C(C)(C)C)nn(C)c3C)cc12 (stereo not drawn) [Compound 34, 1-(4-{2-[(5-fluoro-2-{3-[(methylamino)methyl]pyrazolo[1,5-a]pyridin-5-yl}phenyl)oxy]ethyl}-1,5-dimethylpyrazol-3-yl)-2,2-dimethylpropan-1-ol]	1.93	–
CNCc1cnn2ccc(-c3ccc(F)cc3OCCc3c(C(O)C(C)C)nn(C)c3C)cc12 (stereo not drawn) [Compound 36, 1-(4-{2-[(5-fluoro-2-{3-[(methylamino)methyl]pyrazolo[1,5-a]pyridin-5-yl}phenyl)oxy]ethyl}-1,5-dimethylpyrazol-3-yl)-2-methylpropan-1-ol]	1.96	–
